# Patent US11926623B2, “Heterocycle derivatives as pesticides” (Bayer Aktiengesellschaft, priority 2018, dated 2024)
# Read-outs that look alike come from different tables or passages of the source.
# Legend:
# [1] = log P by HPLC on reversed-phase column (C18), EEC Directive 79/831 Annex V.A8; type: physicochemical
# Experimental: The log P values were determined according to EEC Directive 79/831 Annex V.A8 by HPLC (high-performance liquid chromatography) on a reversed-phase column (C18) using the following methods: ^[a] […] Calibration was carried out using a homologous series of straight-chain alkan-2-ones (having 3 to 16 carbon atoms) with known log P values. The values between successive alkanones are determined by linear regression.
# [2] = tested on: Ctenocephalides felis; test: Ctenocephalides felis oral test; type: in vivo; conditions: 48 h, 100 ppm in citrated cattle blood, unfed adult cat fleas, after 2 days, read-out: efficacy (kill in %)
# Experimental: Ctenocephalides felis—Oral Test [table] To produce a suitable active compound preparation, 10 mg of active compound are mixed with 0.5 ml of dimethyl sulfoxide. Dilution with citrated cattle blood gives the desired concentration. About 20 unfed adult cat fleas (Ctenocephalides felis) are placed into a chamber which is closed at the top and bottom with gauze. A metal cylinder whose bottom end is closed with parafilm is placed onto the chamber. The cylinder contains the blood/active compound formulation, which can be imbibed by the fleas through the parafilm membrane. After 2 days, the kill in % is determined. 100% means that all of the fleas have been killed; 0% means that none of the fleas have been killed.
# [3] = tested on: Myzus persicae; test: Myzus persicae spray test; type: in vivo; conditions: foliar, 120 h, sprayed Chinese cabbage leaf discs, all stages of the green peach aphid, after 5 days, read-out: efficacy
# Experimental: Myzus persicae—Spray Test [table] To produce a suitable active compound preparation, 1 part by weight of active compound is dissolved using the stated parts by weight of solvent and made up with water containing an emulsifier concentration of 1000 ppm until the desired concentration is attained. To produce further test concentrations, the formulation is diluted with emulsifier-containing water. Discs of Chinese cabbage leaves (Brassica pekinensis) infested by all stages of the green peach aphid (Myzus persicae) are sprayed with an active compound formulation of the desired concentration. After 5 days, the efficacy in % is determined. 100% means that all the aphids have been killed; 0% means that no aphids have been killed.
# [4] = tested on: Myzus persicae; test: Myzus persicae oral test; type: in vivo; conditions: 120 h, mixed population of green peach aphids, after 5 days, read-out: efficacy
# Experimental: Myzus persicae—Oral Test [table] To produce a suitable preparation of active compound, 1 part by weight of active compound is dissolved using the specified parts by weight of solvent and made up with water until the desired concentration is attained. 50 μl of the active ingredient formulation are transferred into microtitre plates and made up to a final volume of 200 μl with 150 μl of IPL41 insect medium (33%+15% sugar). Subsequently, the plates are sealed with parafilm, which a mixed population of green peach aphids (Myzus persicae) within a second microtitre plate is able to puncture and imbibe the solution through. After 5 days, the efficacy in % is determined. 100% means that all the aphids have been killed; 0% means that no aphids have been killed.
# [5] = tested on: Spodoptera frugiperda; test: Spodoptera frugiperda spray test; type: in vivo; conditions: foliar, 168 h, sprayed maize leaf discs, fall armyworm caterpillars, after 7 days, read-out: efficacy
# Experimental: Spodoptera frugiperda—Spray Test [table] To produce a suitable active compound preparation, 1 part by weight of active compound is dissolved using the stated parts by weight of solvent and made up with water containing an emulsifier concentration of 1000 ppm until the desired concentration is attained. To produce further test concentrations, the formulation is diluted with emulsifier-containing water. Leaf discs of maize (Zea mays) are sprayed with an active compound formulation of the desired concentration and, after drying, populated with caterpillars of the fall armyworm (Spodoptera frugiperda). After 7 days, the efficacy in % is determined. 100% means that all the caterpillars have been killed; 0% means that no caterpillar has been killed.
# [6] = tested on: Phaedon cochleariae; test: Phaedon cochleariae spray test; type: in vivo; conditions: 100 g/ha, sprayed Chinese cabbage leaf discs, mustard beetle larvae, after 7 days
# Experimental: Phaedon cochleariae—Spray Test
# To produce a suitable active compound preparation, 1 part by weight of active compound is dissolved using the stated parts by weight of solvent and made up with water containing an emulsifier concentration of 1000 ppm until the desired concentration is attained. To produce further test concentrations, the formulation is diluted with emulsifier-containing water.
# Discs of Chinese cabbage leaves (Brassica pekinensis) are sprayed with an active compound formulation of the desired concentration and, after drying, populated with larvae of the mustard beetle (Phaedon cochleariae).
# After 7 days, the efficacy in % is determined. 100% means that all the beetle larvae have been killed; 0% means that no beetle larvae have been killed.
# [7] = tested on: Diabrotica balteata; test: Diabrotica balteata spray test; type: in vivo; conditions: 168 h, 160 μg/well, sprayed germinated wheat grains, beetle larvae, after 7 days, read-out: efficacy
# Experimental: Diabrotica balteata—Spray Test [table] To produce a suitable active compound preparation, 1 part by weight of active compound is dissolved using the stated parts by weight of solvent and made up with water containing an emulsifier concentration of 1000 ppm until the desired concentration is attained. To produce further test concentrations, the formulation is diluted with emulsifier-containing water. Pre-swollen wheat grains (Triticum aestivum) are incubated in a multiwell plate filled with agar and a little water for one day (5 seed grains per well). The germinated wheat grains are sprayed with an active compound preparation of the desired concentration. Subsequently, each cavity is infected with 10-20 beetle larvae of Diabrotica balteata. After 7 days, the efficacy in % is determined. 100% means that all wheat plants have grown as in the untreated, uninfected control; 0% means that no wheat plant has grown.
# [8] = LC-UV in the acidic range, formic acid in water / acetonitrile, read-out: log P[acidic]
# [9] = LC-UV in the neutral range, ammonium carbonate in water / acetonitrile, read-out: log P[neutral]
"chromatographic logP [1, 8]","chromatographic logP [1, 9]",Structure (SMILES),pest or weed control at 100 ppm [2],pest or weed control at 100 g/ha [3],pest or weed control at 4 ppm [4],pest or weed control at 100 g/ha [5],efficacy [6],"pest or weed control at 160 µg/disc, 160 µg/well [7]"
2.73,2.72,"CCS(=O)(=O)c1c(-c2nc3cc(C(F)(F)F)cnc3n2C)nc(C2CC(C3CC3)=NO2)n1C (centres unmarked) [Example I-1, 2-[2-(3-Cyclopropyl-4,5-dihydro-1,2-oxazol-5-yl)-5-(ethylsulfonyl)-1-methyl-1H-imidazol-4-yl]-3-methyl-6-(trifluoromethyl)-3H-imidazo[4,5-b]pyridine]",100%,100%,100%,,,
,,CCS(=O)(=O)c1c(-c2nc3cc(C(F)(F)F)cnc3n2C)nc(C2CC(c3ccc(Cl)cc3)=NO2)n1C (centres unmarked) [Example I-2],,,100%,100%,,
,,CCS(=O)(=O)c1c(-c2nc3cc(C(F)(F)F)cnc3n2C)nc(C2CC(c3ccccn3)=NO2)n1C (centres unmarked) [Example I-3],,90%,100%,100%,,
,,CCS(=O)(=O)c1c(-c2nc3cc(C(F)(F)F)cnc3n2C)nc(C2CC(c3cccnc3)=NO2)n1C (centres unmarked) [Example I-4],,100%,100%,,,
3.14,3.07,"CCS(=O)(=O)c1c(-c2nc3cc(C(F)(F)F)cnc3n2C)nc(-c2ccc(C3(C#N)CC3)cc2)n1C [Example I-5, 1-(4-{5-(Ethylsulfonyl)-1-methyl-4-[3-methyl-6-(trifluoromethyl)-3H-imidazo[4,5-b]pyridin-2-yl]-1H-imidazol-2-yl}phenyl)cyclopropanecarbonitrile]",100%,100%,100%,100%,100%,
,,CCS(=O)(=O)c1c(-c2nc3cc(C(F)(F)F)cnc3n2C)nc(-c2ccnn2C2CC2)n1C [Example I-7],,90%,100%,,100%,
,,CCS(=O)(=O)c1c(-c2nc3cc(C(F)(F)F)cnc3n2C)nc(-c2ccc(C3CC3)s2)n1C [Example I-8],80%,100%,100%,100%,,
,,CCS(=O)(=O)c1c(-c2nc3cc(C(F)(F)F)cnc3n2C)nc(-c2ccc(-c3ccccc3)s2)n1C [Example I-11],90%,90%,100%,100%,,
,,CCS(=O)(=O)c1c(-c2nc3cc(C(F)(F)F)cnc3n2C)nc(-c2cccc(C3(C#N)CC3)c2)n1C [Example I-12],,90%,100%,100%,,100%
,,CCS(=O)(=O)c1c(-c2nc3cc(C(F)(F)F)cnc3n2C)nc(-c2ccc(-c3cccs3)s2)n1C [Example I-13],,90%,100%,,,80%
,,CCS(=O)(=O)c1c(-c2nc3cc(C(F)(F)F)cnc3n2C)nc(-c2ccc(C3CC3)nc2)n1C [Example I-14],90%,90%,100%,100%,100%,
,,CCS(=O)(=O)c1c(-c2nc3cc(C(F)(F)C(F)(F)F)cnc3n2C)nc(-c2ccc(C3(C#N)CC3)cc2)n1C [Example I-15],,90%,100%,100%,,100%
,,CCS(=O)(=O)c1c(-c2nc3cc(C(F)(F)C(F)(F)F)cnc3n2C)nc(-c2cnn(C3CC3)c2)n1C [Example I-16],,90%,100%,100%,,100%
,,CCS(=O)(=O)c1c(-c2nc3cc(C(F)(F)C(F)(F)F)cnc3n2C)nc(-c2cnn(-c3ccc(F)cc3)c2)n1C [Example I-17],,,100%,100%,,100%
,,CCS(=O)(=O)c1c(-c2nc3cc(C(F)(F)C(F)(F)F)cnc3n2C)nc(-c2cnn(-c3ccccc3C#N)c2)n1C [Example I-18],,70%,100%,100%,,80%
,,CCS(=O)(=O)c1c(-c2nc3cc(C(F)(F)C(F)(F)F)cnc3n2C)nc(-c2cnn(-c3cccc(C#N)c3)c2)n1C [Example I-19],,,100%,100%,,100%
,,CCS(=O)(=O)c1c(-c2nc3cc(C(F)(F)C(F)(F)F)cnc3n2C)nc(-c2cnn(-c3cncc(F)c3)c2)n1C [Example I-20],,100%,100%,100%,,100%
,,CCS(=O)(=O)c1c(-c2nc3cc(C(F)(F)C(F)(F)F)cnc3n2C)nc(-n2ccc(C3CC3)n2)n1C [Example I-21],,90%,100%,100%,,100%
,,CCS(=O)(=O)c1c(-c2nc3cc(C(F)(F)C(F)(F)F)cnc3n2C)nc(-c2ccc(C3CC3)nc2)n1C [Example I-22],,90%,100%,100%,,100%
,,CCS(=O)(=O)c1c(-c2nc3cc(C(F)(F)C(F)(F)F)cnc3n2C)nc(-c2cccc(N3CCOCC3)n2)n1C [Example I-23],,,100%,100%,,100%
,,CCS(=O)(=O)c1c(-c2nc3cc(C(F)(F)C(F)(F)F)cnc3n2C)nc(-c2cccc(C3(C#N)CC3)c2)n1C [Example I-24],,,100%,100%,,100%
,,CCS(=O)(=O)c1c(-c2nc3cc(C(F)(F)C(F)(F)F)cnc3n2C)nc(-n2cc(C#N)c(-c3ccccc3F)c2)n1C [Example I-25],,,,100%,,100%
,,CCS(=O)(=O)c1c(-c2nc3cc(C(F)(F)C(F)(F)F)cnc3n2C)nc(-n2cc(C#N)c(-c3ccc(F)cc3)c2)n1C [Example I-26],,,100%,100%,,100%
